# Results published in publication PMC6934184, “Selective DNA-PKcs inhibition extends the therapeutic index of localized radiotherapy and chemotherapy” (The Journal of Clinical Investigation, 2019).
# Biological target: T1, KIT N822K (Homo sapiens, UniProt P10721, N822K)
# T1 construct: purchased Thermo Fisher Scientific (Life Technologies) SelectScreen
# Assay: SelectScreen LanthaScreen
# Type: binding
# Conditions: read-out: % displacement
# Procedure: The in vitro kinase selectivity of NU5455 was determined using the SelectScreen Broad Assay Panel (Thermo Fisher Scientific) involving activity and binding assays (Supplemental Table 1). […] Class IA PI3Ks were measured using the p85α subunit.
# Kinase [ATP] % Assay Kinase [ATP] % Assay Kinase [ATP] % Assay Kinase [ATP] % Assay […]
# FLT3 Km app 9.1 Z HIPK1 (Myak) Km app 2.8 Z KIT N822K n/a -0.2 L EPHB4 Km app -5.3 Z […]
# SGK (SGK1) Km app 8.5 Z MAP4K2 (GCK) Km app 2.7 Z TLK2 n/a -0.3 L STK38 (NDR) n/a -5.9 L
# MERTK (cMER) Km app 8.3 Z CDK2/cyclin A Km app 2.7 Z TGFBR1 (ALK5) n/a -0.4 L MATK (HYL) Km app -6.3 Z
# FYN Km app 8.3 Z EPHA1 Km app 2.7 Z CLK3 Km app -0.5 Z ABL1 E255K Km app -6.6 Z
# TEC n/a 8.1 L CDK2/cyclin E1 n/a 2.7 L MAP3K14 (NIK) n/a -0.5 L STK17A (DRAK1) n/a -6.6 L
# KIT V654A n/a 8.1 L TESK2 n/a 2.7 L AKT3 (PKB gamma) Km app -0.5 Z JAK2 JH1 JH2 Km app -6.7 Z
# ROS1 Km app 8.0 Z SPHK1 Km app 2.7 A MAP3K9 (MLK1) Km app -0.5 Z PRKACB (PRKAC beta) n/a -6.8 L
# FGFR3 K650E Km app 7.9 Z AMPK A2/B1/G1 Km app 2.6 Z IKBKB (IKK beta) Km app -0.6 Z PDGFRA (PDGFR alpha) Km app -6.8 Z
# RAF1 (cRAF) Y340D Y341D 100 7.9 Z DYRK3 Km app 2.6 Z CAMK2A (CaMKII alpha) Km app -0.6 Z NEK9 Km app -7.2 Z
# PI4KA (PI4K alpha) 10 7.8 A CSNK1D (CK1 delta) Km app 2.6 Z PRKCB1 (PKC beta I) Km app -0.7 Z PDK1 Km app -7.3 Z
# HIPK2 Km app 7.8 Z ACVR2A n/a 2.5 L TTK n/a -0.7 L RPS6KB1 (p70S6K) Km app -7.8 Z […]
# T1 sequence (P10721 26-976 N822K): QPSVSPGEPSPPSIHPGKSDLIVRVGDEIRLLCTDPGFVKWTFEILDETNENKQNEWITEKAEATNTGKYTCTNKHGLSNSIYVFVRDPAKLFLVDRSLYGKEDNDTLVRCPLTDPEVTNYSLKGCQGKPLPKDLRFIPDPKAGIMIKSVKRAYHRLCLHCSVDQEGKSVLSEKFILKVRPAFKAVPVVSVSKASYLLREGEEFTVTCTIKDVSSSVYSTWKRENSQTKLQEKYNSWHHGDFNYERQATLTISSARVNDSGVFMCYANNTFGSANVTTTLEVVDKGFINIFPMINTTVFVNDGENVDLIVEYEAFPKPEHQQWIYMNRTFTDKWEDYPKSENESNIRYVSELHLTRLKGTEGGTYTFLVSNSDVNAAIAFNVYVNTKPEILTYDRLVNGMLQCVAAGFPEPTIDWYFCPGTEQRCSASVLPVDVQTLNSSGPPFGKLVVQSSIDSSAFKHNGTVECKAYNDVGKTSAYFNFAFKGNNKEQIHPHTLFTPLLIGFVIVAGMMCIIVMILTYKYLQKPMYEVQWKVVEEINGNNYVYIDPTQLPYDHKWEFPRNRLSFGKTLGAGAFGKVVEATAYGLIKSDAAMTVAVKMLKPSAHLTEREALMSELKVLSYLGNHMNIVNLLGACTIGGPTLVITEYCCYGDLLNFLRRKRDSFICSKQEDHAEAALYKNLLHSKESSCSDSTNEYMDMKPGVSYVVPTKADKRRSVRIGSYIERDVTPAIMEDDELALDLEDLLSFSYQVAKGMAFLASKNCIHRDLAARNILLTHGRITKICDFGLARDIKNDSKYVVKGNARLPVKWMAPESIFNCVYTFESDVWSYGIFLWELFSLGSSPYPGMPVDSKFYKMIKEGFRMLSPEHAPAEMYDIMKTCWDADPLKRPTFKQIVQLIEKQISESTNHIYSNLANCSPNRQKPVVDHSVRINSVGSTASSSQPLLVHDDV
smiles,measurement,value
CN(C(=O)CN1CCOCC1)c1ccc2sc3c(-c4cccc5c(=O)cc(N6CC7CCC(C6)O7)oc45)cccc3c2c1 [NU5455],inhibition at 1 µM,-0.2%
